Assay results published in publication PMC7714403 (JCI Insight, 2020).
pKd: −log10 of the molar value.

Experiments:
FMS = FMS (Homo sapiens, UniProt P07333); experiment: KiNativ, OCI cells live cell; format: cell-based; details: 2 h, labeling site ATP Loop, peptide […]
SLK = SLK (Homo sapiens, UniProt Q9H2G2); experiment: KiNativ, OCI cells live cell; format: cell-based; details: 2 h, labeling site Lys2, peptide […]
PI4KB = PI4KB (Homo sapiens, UniProt Q9UBF8); experiment: KiNativ, OCI cells live cell; format: cell-based; details: 2 h, labeling site ATP
PI4KB, sequence (Q9UBF8 whole entry): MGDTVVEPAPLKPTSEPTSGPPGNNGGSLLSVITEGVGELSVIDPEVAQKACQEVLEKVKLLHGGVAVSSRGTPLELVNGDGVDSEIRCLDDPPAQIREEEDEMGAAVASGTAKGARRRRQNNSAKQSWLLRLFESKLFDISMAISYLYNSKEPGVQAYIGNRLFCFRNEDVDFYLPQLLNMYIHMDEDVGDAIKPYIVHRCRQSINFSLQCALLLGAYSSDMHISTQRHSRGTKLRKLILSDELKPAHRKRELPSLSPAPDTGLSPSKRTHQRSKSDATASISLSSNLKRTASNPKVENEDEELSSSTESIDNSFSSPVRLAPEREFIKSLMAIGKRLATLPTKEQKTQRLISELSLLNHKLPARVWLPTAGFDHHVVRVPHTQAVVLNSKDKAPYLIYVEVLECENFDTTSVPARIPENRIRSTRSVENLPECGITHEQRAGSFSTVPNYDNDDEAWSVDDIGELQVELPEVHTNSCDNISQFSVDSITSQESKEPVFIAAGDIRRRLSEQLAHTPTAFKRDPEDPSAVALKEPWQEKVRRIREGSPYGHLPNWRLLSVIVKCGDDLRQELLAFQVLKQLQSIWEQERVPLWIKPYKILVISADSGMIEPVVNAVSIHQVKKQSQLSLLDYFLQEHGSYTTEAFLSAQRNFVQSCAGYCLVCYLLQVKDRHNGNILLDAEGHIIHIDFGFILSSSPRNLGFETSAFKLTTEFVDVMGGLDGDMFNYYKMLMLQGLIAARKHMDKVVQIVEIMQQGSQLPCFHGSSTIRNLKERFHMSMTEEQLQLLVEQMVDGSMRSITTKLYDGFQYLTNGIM

MLK4 = MLK4 (Homo sapiens, UniProt Q5TCX8); experiment: KiNativ, OCI cells live cell; format: cell-based; details: 2 h, labeling site Lys2, peptide […]
MAP2K1, MAP2K2 = experiment: KiNativ, OCI cells live cell; format: cell-based, human; details: labeling site Lys2, peptide DVKPSNILVNSR
MST1 = MST1 (Homo sapiens, UniProt Q13043); experiment: KiNativ, OCI cells live cell; format: cell-based; details: labeling site Lys1, peptide ETGQIVAIKQVPVESDLQEIIK
MST1, sequence (Q13043 whole entry): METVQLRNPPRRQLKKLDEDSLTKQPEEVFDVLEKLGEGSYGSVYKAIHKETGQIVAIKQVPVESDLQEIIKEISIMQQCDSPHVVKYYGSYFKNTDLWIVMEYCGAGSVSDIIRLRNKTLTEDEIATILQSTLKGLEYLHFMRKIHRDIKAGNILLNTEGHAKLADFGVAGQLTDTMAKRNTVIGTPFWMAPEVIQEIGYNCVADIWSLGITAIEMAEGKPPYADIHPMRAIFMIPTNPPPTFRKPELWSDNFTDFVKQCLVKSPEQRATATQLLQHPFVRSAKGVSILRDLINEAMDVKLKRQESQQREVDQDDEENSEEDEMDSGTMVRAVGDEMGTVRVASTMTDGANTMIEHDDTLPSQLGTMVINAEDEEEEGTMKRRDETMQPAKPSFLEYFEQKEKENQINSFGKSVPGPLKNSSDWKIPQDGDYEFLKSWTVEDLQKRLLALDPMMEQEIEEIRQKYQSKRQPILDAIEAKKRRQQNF

PIK3CG = PIK3CG (Homo sapiens, UniProt P48736); experiment: KiNativ, OCI cells live cell; format: cell-based; details: 2 h, labeling site ATP, peptide […]
CK1a = CK1a (Homo sapiens, UniProt P48729); experiment: KiNativ, OCI cells live cell; format: cell-based; details: 2 h, labeling site Lys2, peptide […]
CK1a, sequence (P48729 whole entry): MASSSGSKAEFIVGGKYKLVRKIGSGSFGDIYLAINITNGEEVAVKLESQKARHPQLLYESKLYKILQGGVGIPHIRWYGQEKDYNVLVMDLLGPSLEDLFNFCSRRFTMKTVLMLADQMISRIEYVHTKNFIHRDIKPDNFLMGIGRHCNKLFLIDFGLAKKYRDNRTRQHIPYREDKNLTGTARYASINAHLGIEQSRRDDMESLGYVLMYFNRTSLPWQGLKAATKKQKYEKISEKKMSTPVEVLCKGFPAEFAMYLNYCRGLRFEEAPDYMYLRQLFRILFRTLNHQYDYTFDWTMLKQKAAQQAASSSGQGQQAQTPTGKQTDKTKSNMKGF

MLK3 = MLK3 (Homo sapiens, UniProt Q16584); experiment: KiNativ, OCI cells live cell; format: cell-based; details: labeling site Lys2, peptide DLKSNNILLLQPIESDDMEHK
ULK3 = ULK3 (Homo sapiens, UniProt Q6PHR2); experiment: KiNativ, OCI cells live cell; format: cell-based; details: labeling site Lys1, peptide EVVAIKCVAK
ULK3, sequence (Q6PHR2 whole entry): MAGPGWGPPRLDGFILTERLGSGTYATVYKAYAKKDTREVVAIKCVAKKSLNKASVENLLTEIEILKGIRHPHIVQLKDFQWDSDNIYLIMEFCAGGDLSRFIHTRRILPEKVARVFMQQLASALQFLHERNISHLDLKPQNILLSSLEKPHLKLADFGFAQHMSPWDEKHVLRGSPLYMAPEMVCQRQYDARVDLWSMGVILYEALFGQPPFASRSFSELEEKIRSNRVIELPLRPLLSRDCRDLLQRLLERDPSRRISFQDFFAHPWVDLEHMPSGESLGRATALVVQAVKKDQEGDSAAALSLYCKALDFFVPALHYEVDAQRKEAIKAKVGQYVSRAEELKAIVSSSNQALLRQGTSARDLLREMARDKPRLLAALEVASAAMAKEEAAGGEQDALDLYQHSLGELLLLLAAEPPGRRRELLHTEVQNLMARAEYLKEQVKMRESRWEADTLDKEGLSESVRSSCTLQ

AURKB = target: T1, AURKB (Homo sapiens, UniProt Q96GD4); experiment: KdELECT binding assay
T1 construct: purchased Eurofins DiscoverX
T1 sequence (Q96GD4 whole entry): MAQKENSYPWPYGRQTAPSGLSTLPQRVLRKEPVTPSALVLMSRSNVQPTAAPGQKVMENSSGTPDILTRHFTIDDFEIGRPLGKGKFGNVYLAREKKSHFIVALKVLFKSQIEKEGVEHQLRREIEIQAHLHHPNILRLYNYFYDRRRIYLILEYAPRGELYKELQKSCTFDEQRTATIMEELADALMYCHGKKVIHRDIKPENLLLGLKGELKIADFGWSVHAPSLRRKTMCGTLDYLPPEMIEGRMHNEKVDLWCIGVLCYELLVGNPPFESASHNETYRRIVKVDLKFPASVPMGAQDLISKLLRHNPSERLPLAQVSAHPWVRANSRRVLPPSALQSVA

IKKb = target: T2, IKKb (Homo sapiens, UniProt O14920); experiment: KiNativ, OCI cells live cell; format: cell-based; details: 2 h
T2 sequence (O14920 1-756): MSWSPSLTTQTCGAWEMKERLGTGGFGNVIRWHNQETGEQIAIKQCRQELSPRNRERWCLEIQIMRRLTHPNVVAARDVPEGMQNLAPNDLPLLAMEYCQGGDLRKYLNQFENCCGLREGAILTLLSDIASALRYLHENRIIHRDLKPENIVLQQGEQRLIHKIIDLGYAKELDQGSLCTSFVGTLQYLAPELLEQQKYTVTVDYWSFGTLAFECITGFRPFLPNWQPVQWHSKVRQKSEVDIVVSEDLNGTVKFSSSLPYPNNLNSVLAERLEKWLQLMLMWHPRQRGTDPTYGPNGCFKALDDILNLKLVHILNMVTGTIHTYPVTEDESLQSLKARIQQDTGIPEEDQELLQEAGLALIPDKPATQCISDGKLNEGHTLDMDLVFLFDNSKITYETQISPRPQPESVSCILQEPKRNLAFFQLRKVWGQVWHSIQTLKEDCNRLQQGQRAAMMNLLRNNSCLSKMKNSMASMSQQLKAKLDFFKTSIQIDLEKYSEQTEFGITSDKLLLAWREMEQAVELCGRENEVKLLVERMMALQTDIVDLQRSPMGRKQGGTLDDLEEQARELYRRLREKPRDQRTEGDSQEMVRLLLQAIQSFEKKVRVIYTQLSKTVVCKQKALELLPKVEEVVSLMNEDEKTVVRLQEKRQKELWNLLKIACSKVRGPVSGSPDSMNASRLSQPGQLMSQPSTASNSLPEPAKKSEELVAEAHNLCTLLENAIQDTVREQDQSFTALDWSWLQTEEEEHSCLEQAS

STLK5 = target: T3, STLK5 (Homo sapiens, UniProt Q7RTN6); experiment: KiNativ, OCI cells live cell; format: cell-based; details: 2 h, labeling site Lys2, peptide […]
T3 sequence (Q7RTN6 1-431): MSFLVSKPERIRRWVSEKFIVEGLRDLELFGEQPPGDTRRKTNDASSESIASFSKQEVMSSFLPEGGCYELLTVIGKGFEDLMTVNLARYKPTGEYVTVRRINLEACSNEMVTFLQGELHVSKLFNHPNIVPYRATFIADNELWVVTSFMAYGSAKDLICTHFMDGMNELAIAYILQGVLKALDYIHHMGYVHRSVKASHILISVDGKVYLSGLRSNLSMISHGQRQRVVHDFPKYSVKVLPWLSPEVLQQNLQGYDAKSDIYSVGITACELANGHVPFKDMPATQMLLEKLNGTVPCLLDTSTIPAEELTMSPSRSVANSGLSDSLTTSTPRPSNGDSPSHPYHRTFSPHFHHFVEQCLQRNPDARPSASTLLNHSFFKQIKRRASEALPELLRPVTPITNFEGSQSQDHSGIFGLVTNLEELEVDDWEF

SLK, sequence (Q9H2G2 whole entry): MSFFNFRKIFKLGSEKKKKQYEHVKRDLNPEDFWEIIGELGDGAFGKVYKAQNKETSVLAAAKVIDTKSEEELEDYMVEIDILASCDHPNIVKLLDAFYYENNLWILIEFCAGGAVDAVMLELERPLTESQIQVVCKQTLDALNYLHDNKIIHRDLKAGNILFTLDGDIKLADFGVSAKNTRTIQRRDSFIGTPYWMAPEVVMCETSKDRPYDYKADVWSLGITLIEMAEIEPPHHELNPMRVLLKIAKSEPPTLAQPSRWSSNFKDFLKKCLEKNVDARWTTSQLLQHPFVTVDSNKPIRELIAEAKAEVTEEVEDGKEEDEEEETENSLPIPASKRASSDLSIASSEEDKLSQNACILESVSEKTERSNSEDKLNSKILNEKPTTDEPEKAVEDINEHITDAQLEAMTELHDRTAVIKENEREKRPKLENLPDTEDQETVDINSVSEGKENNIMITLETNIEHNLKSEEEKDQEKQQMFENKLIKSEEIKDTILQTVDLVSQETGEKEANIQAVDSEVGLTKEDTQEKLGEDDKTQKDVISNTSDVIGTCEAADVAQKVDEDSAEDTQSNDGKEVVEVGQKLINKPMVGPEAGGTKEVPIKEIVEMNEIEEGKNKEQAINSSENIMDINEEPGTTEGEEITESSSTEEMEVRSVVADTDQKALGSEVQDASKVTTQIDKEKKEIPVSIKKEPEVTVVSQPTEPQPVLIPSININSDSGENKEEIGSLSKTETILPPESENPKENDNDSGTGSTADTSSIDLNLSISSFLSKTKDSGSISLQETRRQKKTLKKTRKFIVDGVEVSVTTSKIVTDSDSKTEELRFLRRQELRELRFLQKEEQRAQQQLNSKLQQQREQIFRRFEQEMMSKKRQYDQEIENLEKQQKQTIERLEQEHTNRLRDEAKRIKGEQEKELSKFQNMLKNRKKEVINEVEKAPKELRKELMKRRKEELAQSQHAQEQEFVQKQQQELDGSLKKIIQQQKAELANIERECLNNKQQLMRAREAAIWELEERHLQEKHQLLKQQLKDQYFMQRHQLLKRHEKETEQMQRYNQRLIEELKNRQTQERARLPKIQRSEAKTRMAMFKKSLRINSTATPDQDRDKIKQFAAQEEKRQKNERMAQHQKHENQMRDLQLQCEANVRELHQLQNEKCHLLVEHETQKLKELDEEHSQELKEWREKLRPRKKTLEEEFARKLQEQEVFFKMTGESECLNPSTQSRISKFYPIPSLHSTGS
FMS, sequence (P07333 20-972): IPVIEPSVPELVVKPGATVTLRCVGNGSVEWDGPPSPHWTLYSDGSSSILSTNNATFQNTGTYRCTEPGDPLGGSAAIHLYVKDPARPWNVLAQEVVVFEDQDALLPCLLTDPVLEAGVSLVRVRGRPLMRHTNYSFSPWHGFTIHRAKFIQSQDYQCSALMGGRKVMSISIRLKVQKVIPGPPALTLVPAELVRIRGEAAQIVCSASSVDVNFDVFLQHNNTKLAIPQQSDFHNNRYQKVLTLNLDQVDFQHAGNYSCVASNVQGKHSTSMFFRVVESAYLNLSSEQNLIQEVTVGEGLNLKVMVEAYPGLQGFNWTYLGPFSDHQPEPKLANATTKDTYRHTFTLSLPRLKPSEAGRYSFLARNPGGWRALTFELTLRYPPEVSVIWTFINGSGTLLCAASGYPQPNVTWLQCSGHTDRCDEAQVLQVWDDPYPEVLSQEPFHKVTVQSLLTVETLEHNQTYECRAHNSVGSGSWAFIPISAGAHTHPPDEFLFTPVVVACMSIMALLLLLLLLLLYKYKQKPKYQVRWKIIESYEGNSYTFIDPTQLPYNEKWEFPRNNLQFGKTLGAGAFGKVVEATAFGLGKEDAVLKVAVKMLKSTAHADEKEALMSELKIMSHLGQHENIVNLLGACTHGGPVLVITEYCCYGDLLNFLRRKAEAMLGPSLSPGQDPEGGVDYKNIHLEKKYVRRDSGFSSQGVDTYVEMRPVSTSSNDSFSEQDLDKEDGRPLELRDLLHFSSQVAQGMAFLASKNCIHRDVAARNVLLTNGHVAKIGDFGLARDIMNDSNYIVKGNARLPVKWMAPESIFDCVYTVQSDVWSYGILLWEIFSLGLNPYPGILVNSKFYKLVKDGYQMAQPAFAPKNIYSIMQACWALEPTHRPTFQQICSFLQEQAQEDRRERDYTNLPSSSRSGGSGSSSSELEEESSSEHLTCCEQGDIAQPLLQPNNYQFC

CN1CCN(Cc2ccc(Nc3ncc(Cl)c(Nc4ccccc4S(=O)(=O)N(C)C)n3)cc2)CC1 [TP-0903] showed an inhibition at 0.1 µM (FMS) of -50%, an inhibition at 0.1 µM (SLK) of 86.1% and an inhibition at 0.1 µM (PI4KB; peptide LLSVIVKCGDDLRQELLAFQVLK) of -13.1%. It also gave an inhibition at 0.1 µM (PI4KB; peptide VPHTQAVVLNSKDK) of -23.3%, an inhibition at 0.1 µM (MLK4) of 12.7% and an Inhibition (MAP2K1, MAP2K2) of 11.7%. The Inhibition (MST1) was 33.6%, the inhibition at 0.1 µM (PIK3CG) was 5.5% and the inhibition at 0.1 µM (CK1a) was -12.3%. It also gave an Inhibition (MLK3) of 31.9%, an Inhibition (ULK3) of 40.5% and a pKd (AURKB) of over 8.30. The inhibition at 0.1 µM (IKKb; labeling site Lys1, peptide WHNQETGEQIAIKQCR) was -16%, the inhibition at 0.1 µM (IKKb; labeling site Lys2, peptide DLKPENIVLQQGEQR) was 14.6% and the inhibition at 0.1 µM (STLK5) was -46.6%.
